“Also recorded” adds a separate entry of the source.
How the values were obtained:
5/2 cells = test: Growth (DNA synthesis, [3H]thymidine) of lymphoblastoid 5/2 cells in serum-free medium; assay type: cell-based, human; conditions: for restoration of capacity to proliferate: ITLB medium without retinol
Protocol: Washed 5/2 cells (5,000/well) were incubated for 72 hours in HB101 medium with the indicated amounts of retinoids. DNA synthesis was measured by [^3 H] thymidine uptake. The measurements were done in triplicate. The SDs were <15%.
In FIGS. 4B to 4D, 5/2 cells were washed twice and seeded at a concentration of 150,000 cells/ml in HB 101 medium. Triplicate samples of 100 μl of cell suspension were removed daily and pulsed for 6 hours with [^3 H] thymidine. Means are shown. The SDs were never >20%.
P3 was purified as described in the Experimental Details section. 5/2 cells (5,000/well) were incubated for 72 hours in HB101 medium and refed with the indicated amount of retinoid daily. DNA synthesis was measured by [^3 H]-thymidine uptake. P3 is bioactive down to a concentration of 10-^8 M (FIG. 8). […] This is due either to chemical instability or to a more rapid metabolic degradation of P3 by the cells.
The assay was done in 96-well microtiter plates in a final volume of 200 ul/well. The cells were cultured for 72 hours and cell growth determined by [^3 H] thymidine (0.8 μCi/well)labeling for the last 16 hours. Retinoids were added at the indicated concentrations at the initiation of culture and every 24 hours thereafter.
The human EBV-transformed B-cell line 5/2 was established from the peripheral blood of a healthy donor. The cell line was grown in RPMI 1640 supplemented with 8% fetal calf serum, L-glutamine (2 mM), and antibiotics. The cell line was tested regularly for mycoplasma infections and was consistently negative.
The assay system is a modification of the assay developed by Blazar et al. (12). […] Assays were done in 96 well microtiter plates in a final volume of 200 μl/well or in 25 cm^2 tissue culture flasks. The cells in the microtiter plates were cultured for 72 hours and cell growth was determined by labeling for the last 16 hours with 0.8 μCi/well of [^3 H]thymidine (sp. act. 6.7 Ci/mmol). Growth in the culture flasks was determined in three aliquots of 100 μl taken at 24 hours intervals and cultured in the presence of 0.8 μCi of [^3 H]thymidine for an additional 6 hour period. To determine the viable cell number, nine aliquots per time point were differentially counted in a Neubauer chamber in the presence of trypan blue.
5/2 cells were grown in the absence of retinol in a medium containing the basic RPMI 1640 amino acid/salt mixture, insulin (5 μg/ml), transferrin (5 μg/ml), albumin (0.1%) and linoleic acid (10^-6 M) (ITLB). […] The dose-response curve shown in FIG. 26 indicates an effective concentration of 10^-7 M.

T cells = test: T cell activation/proliferation; assay type: cell-based, murine; conditions: for substitution for retinol in T cell activation: with mitogen/anti-CD3; for T cell activation on its own: without mitogen
Protocol: They were seeded into 96-well flat-bottom plates at varying cellular densities in a final volume of 100 μl. In control experiments, cells were cultured in medium containing 10% FCS or 3% human serum and 5×10^-5 M 2 ME. […] Cultures were carried out in duplicate. Plates were incubated at 37° C. in a humidified 5% CO2 atmosphere. Cellular proliferation was determined by [^3 H] thymidine uptake (0.5 uCi/well; New England Nuclear, Boston, Mass.) after the incubation times indicated for each experiment with a 4 hour labeling pulse. Cells were harvested onto glass filter and [^3 H]TdR incorporation was determined by liquid scintillation counting. The data presented are the means of duplicate or six replicate cultures. The restriction to duplicate measurements was necessary to conserve scarce 14HRR. […] Each experiment was repeated at least twice.

CD4+ T lymphocytes = test: Proliferation of anti-CD3 activated CD4+ T lymphocytes; assay type: cell-based, BALB/c mouse
Excerpt: Growth curves of lymph node T cells depleted of antigen-presenting cells (FIG. 17A) with and without 10^-6 M retinol at 2×10^5 and 5×10^4 cells/well. (FIG. 17B) Dose-responses elicited by different retinoids in cultures of lymph node T cells depleted of antigen-presenting cells. Also shown are the growth curves of CD4^+ (FIG. 17C) and CD8^+ T lymphocytes (FIG. 17D) in the presence of either retinol, 14HRR, human serum or in their absence.
T lymphocytes, purified as described, 5×10^4 well, were activated with immobilized anti-CD3 antibody in ITLB medium. The indicated amounts of retinoids or human serum were added at initiation of cultures. […] 14HRR was added every 12 hours. DNA synthesis was measured by a 4 hour pulse with tritiated thymidine. SDs were ≤17%.
The cell suspension in a volume of 2 ml was applied to a nylon wool column (40) (0.6 g of washed nylon fibers in the barrel of a 10 ml syringe) and incubated at 37° C. for 40 min. The non-adherent cells were recovered by washing with warm serum-free medium at a flow rate of 1 ml/min. […] The success of the enrichment procedures was monitored cytofluorimetrically using FITC-conjugated anti-CD8 and PE-conjugated anti-CD4. […]

CC(C=CC=C(C)C(O)CO)=CC=C1C(C)=CCCC1(C)C (stereo not shown) [14HRR, 14-hydroxy-4,14-retro-retinol]
support of 5/2 cell growth (5/2 cells; HB101 medium): active and capable of replacing retinol | minimal effective concentration (5/2 cells; Homo sapiens, 72 h, HB101 medium, refed daily, read-out: bioactive down to a concentration): 0.01 µM | restoration of capacity to proliferate (5/2 cells): restores the capacity to proliferate | need to replenish cultures (5/2 cells; chemical instability or more rapid metabolic degradation): cultures have to be replenished daily | activity relative to all-trans retinol in T cells (T cells): as active | substitution for retinol in T cell activation (T cells): capable of supporting T cell activation and proliferation | substitution for retinol in T cell activation (T cells; listed as 14-hydroxy-retro-retinol): effectively supports T cell activation in conjunction with a mitogen in lieu of retinol; also recorded: capable of supporting activation and sustaining proliferation of T cells | T cell activation on its own (T cells): unable to activate T cells on their own | response to activating signal (CD4+ T lymphocytes): responded to the activating signal

CC1=C(/C=C/C(C)=C/C=C/C(C)=C/CO)C(C)(C)CCC1 [retinol, all-trans retinol]
support of 5/2 cell growth (5/2 cells; HB101 medium): enable 5/2 cells to grow | restoration of capacity to proliferate (5/2 cells): restores the capacity to proliferate | activation in FCS-containing medium in absence of APC (T cells; additional retinol supplied, FCS medium): no activation | optimally effective dose (T cells; given once in a 3-day culture): 2 µM | optimally effective dose (T cells; provided at 12 hour intervals): 0.2 µM | T cell activation on its own (T cells): unable to activate T cells on their own | response to activating signal (CD4+ T lymphocytes): responded to the activating signal
